Laboratory results taken from PubChem BioAssay AID1996.
In brackets after ≈: the same amount, converted by molar mass.

Details: buffer; pH 7.4; 200.0 µM
In the case of Nc1nc(NCCOCCO)nc(NC2CCCCC2)c1[N+](=O)[O-], the solubility kinetic is reported as > 51.1 µg/mL.
With Cc1cc(NC(=O)COC(=O)c2c(C)c(C)c(C)c(C)c2C)no1 the solubility kinetic was 2.3 µg/mL (≈ 6.96 µM).
In the case of COc1ccc(/C=C/C2=CCN(C)CC2)cc1.Cl, the solubility kinetic is reported as > 39.9 µg/mL.
CN(c1ccccc1)S(=O)(=O)c1ccc2c(c1)OCCO2 gave a solubility kinetic of 43.2 µg/mL (≈ 141 µM).
Work on CC(=O)c1c(C)[nH]c(C(=O)COC(=O)COc2ccccc2)c1C yielded a solubility kinetic of 16.3 µg/mL (≈ 49.5 µM).
COc1ccc(NC(=O)C2CCCO2)c(OC)c1 (centres undefined) showed a solubility kinetic of 33.9 µg/mL (≈ 135 µM).
In the case of O=C(CNC(=O)c1ccccc1F)N/N=C/c1cccs1, the solubility kinetic is reported as > 45.8 µg/mL.
In the case of O=S(=O)(Nc1cc(S(=O)(=O)N2CCOCC2)ccc1Cl)c1ccccc1, the solubility kinetic is reported as > 62.5 µg/mL.
Work on CC(NC(=O)c1ccccc1Cl)C1CC2CCC1C2 (centres undefined) yielded a solubility kinetic of 19.7 µg/mL (≈ 70.9 µM).
CCC(=O)Nc1cc(-c2cc3ccccc3oc2=O)ccc1OC showed a solubility kinetic of 11 µg/mL (≈ 34 µM).
With Cc1cc(-c2onc(C)c2C(=O)Nc2ccc(C(F)(F)F)cc2)no1 the solubility kinetic was < 0.3 µg/mL.
COc1ccccc1-c1noc(CCCC(=O)NC2CCCCC2)n1 gave a solubility kinetic of 48.5 µg/mL (≈ 141 µM).
Work on COc1ccc(N2CCC(CNC(=O)Nc3ccccc3)C2)cc1 (centres undefined) yielded a solubility kinetic of 14.8 µg/mL (≈ 45.5 µM).
Compound Cc1ccc(S(=O)(=O)NCCc2nc3ccccc3[nH]2)cc1 has a solubility kinetic of 36.3 µg/mL (≈ 115 µM).
With CC(C)C(NC(=O)c1ccccc1)C(=O)N1CCCCCC1 (centres undefined) the solubility kinetic was > 45.4 µg/mL.
With Clc1ncc(CSc2ccccc2)s1 the solubility kinetic was 2.3 µg/mL (≈ 9.51 µM).
Cc1ccc(-c2c[nH]c(=S)n2-c2ccccc2)cc1 gave a solubility kinetic of 6 µg/mL (≈ 22.5 µM).
For O=C(O)CN1C(=O)C(=O)N(Cc2cccc(F)c2)C1=O, the solubility kinetic was > 42 µg/mL.
For CC12CCC(=O)N1C(C(=O)NCc1ccccc1F)CS2 (centres undefined), the solubility kinetic was 44.7 µg/mL (≈ 145 µM).
With CN1C(=O)C2(OCC(C)([N+](=O)[O-])CO2)c2ccccc21 (centres undefined) the solubility kinetic was 21.7 µg/mL (≈ 78 µM).
With COCCOc1cc(COC)nc(-c2cccc(C)c2)n1 the solubility kinetic was 25.3 µg/mL (≈ 87.7 µM).
Compound Cc1ccc(NC(=O)CN(C)C(=O)C2CC(=O)N(Cc3ccccc3)C2)cc1 (centres undefined) has a solubility kinetic of 44.7 µg/mL (≈ 118 µM).
COc1ncnc2c1ncn2CC1COC(C)(C)O1 (centres undefined) showed a solubility kinetic of 34.9 µg/mL (≈ 132 µM).
For CCOC(=O)N1CCN(C(=O)c2ccc(OCC)cc2)CC1, the solubility kinetic was > 46 µg/mL.
For CC1CCCCC12NC(=O)N(CC(=O)NCc1ccccc1Cl)C2=O (centres undefined), the solubility kinetic was > 54.6 µg/mL.
Compound O=C(O)C1CCCCC1C(=O)NCCCN1CCCC1=O (centres undefined) has a solubility kinetic of 41.4 µg/mL (≈ 140 µM).
Cc1ccc(NC(=S)NC(=O)Cc2ccccc2)c(O)c1 gave a solubility kinetic of 3.3 µg/mL (≈ 11 µM).
Compound O=C(c1ccc(F)cc1)N1CCCC(c2ccccc2)C1 (centres undefined) has a solubility kinetic of 36.3 µg/mL (≈ 128 µM).
O=C(Nc1cccc(-c2cn3cccnc3n2)c1)Nc1ccccc1F gave a solubility kinetic of 1.7 µg/mL (≈ 4.89 µM).
COC(=O)c1cnc(Oc2c(Cl)cc(N)cc2Cl)cc1C(F)(F)F gave a solubility kinetic of 15.3 µg/mL (≈ 40.1 µM).
In the case of Cc1nc2ccccc2n1C(C)c1ccccc1 (centres undefined), the solubility kinetic is reported as > 35.4 µg/mL.
In the case of Cc1ccc(CN(C)C(=O)CCc2c[nH]c3ccccc23)o1, the solubility kinetic is reported as 6.5 µg/mL (≈ 21.9 µM).
For O=[N+]([O-])c1cc(S(=O)(=O)N2CCCC2)ccc1SCCO, the solubility kinetic was > 49.9 µg/mL.
With CCCOc1ccc(C(=O)NCC(C)(C)N2CCOCC2)cc1 the solubility kinetic was > 48.1 µg/mL.
For COc1ccccc1NC(=O)c1c(C)nc2ccccc2c1C(=O)O, the solubility kinetic was > 50.5 µg/mL.
For O=C(Nc1cccnc1)C1=NN(C2CCS(=O)(=O)C2)C(=O)CC1 (centres undefined), the solubility kinetic was > 50.5 µg/mL.
In the case of Cc1ccc(NC(=O)N2CCCc3ccccc32)cc1, the solubility kinetic is reported as 36.2 µg/mL (≈ 136 µM).
For Cc1csc(NC(=O)CSc2ccccc2F)n1, the solubility kinetic was > 42.4 µg/mL.
With CCn1c(C)c(C(=O)c2ccccc2)c(C#N)c1C(=O)O the solubility kinetic was 36.6 µg/mL (≈ 130 µM).
With c1cn(CCCNC2CCCCCCC2)cn1 the solubility kinetic was 23.9 µg/mL (≈ 102 µM).
Compound Cc1ccc2[nH]c(CNC(=O)c3ccc(F)cc3)cc2c1 has a solubility kinetic of 4.7 µg/mL (≈ 16.6 µM).
For O=C(COC(=O)c1ccc([N+](=O)[O-])o1)NC1CCCC1, the solubility kinetic was 39.2 µg/mL (≈ 139 µM).
With COc1ccccc1Nc1nc(N)nc(CCl)n1 the solubility kinetic was 35.4 µg/mL (≈ 133 µM).
Work on Cc1ccc(NC(=O)CC2CCCC2)c(Br)c1 yielded a solubility kinetic of 2.4 µg/mL (≈ 8.1 µM).
Work on COc1ccc(NC(=O)NC(C)c2ccccc2)cc1 (centres undefined) yielded a solubility kinetic of 15.5 µg/mL (≈ 57.3 µM).
With CSCC[C@H](NC(=O)NC1CCCC1)C(=O)O the solubility kinetic was > 39.1 µg/mL.
Compound Cc1cc(C#N)c(SCC(N)=O)nc1-c1ccc(F)cc1 has a solubility kinetic of 5.6 µg/mL (≈ 18.6 µM).
For Cn1nc(C(C)(C)C)cc1C(=O)O, the solubility kinetic was > 27.3 µg/mL.
CC(=O)Nc1ccc(N2CCN(c3ccc(C(F)(F)F)cn3)CC2)nc1 showed a solubility kinetic of 0.8 µg/mL (≈ 2.19 µM).
In the case of O=C(NCCCn1ccnc1)C1CCN(S(=O)(=O)c2cc([N+](=O)[O-])ccc2Cl)CC1, the solubility kinetic is reported as > 68.4 µg/mL.
With Cc1cc(C)c(S(=O)(=O)c2ccc(F)cc2C)c(=O)[nH]1 the solubility kinetic was > 44.3 µg/mL.
In the case of CC1CCCCC1NC(=O)CSc1nc2ccccc2[nH]1 (centres undefined), the solubility kinetic is reported as 37.5 µg/mL (≈ 124 µM).
O=C1c2cccc3cccc(c23)C(=O)N1Cc1cccnc1 showed a solubility kinetic of 1.6 µg/mL (≈ 5.55 µM).
For CN(Cc1cccc(Cl)c1)C(=O)C1CSC2(C)CCC(=O)N12 (centres undefined), the solubility kinetic was > 50.8 µg/mL.
With O=C(COC(=O)c1ccc(F)cc1)NCC1CCCCC1 the solubility kinetic was 9.4 µg/mL (≈ 32 µM).
N/C(CCS(=O)(=O)c1ccc(Cl)cc1)=N\OC(=O)c1ccccc1Cl gave a solubility kinetic of 41.6 µg/mL (≈ 104 µM).
In the case of Cc1ccc(NS(=O)(=O)c2ccc3c(c2)N(C)CCO3)cc1, the solubility kinetic is reported as 36.1 µg/mL (≈ 113 µM).
In the case of NS(=O)(=O)c1cccc(NC(=O)CC2(CC(=O)O)CCCC2)c1, the solubility kinetic is reported as 41.7 µg/mL (≈ 123 µM).
Compound COc1cccc(NC(=S)N2CCCN(Cc3ccc(F)cc3)C2)c1 has a solubility kinetic of 49.8 µg/mL (≈ 139 µM).
